Experimental data as given in patent US8710050B2, “Di and tri- substituted oxathiazine derivatives, method for the production, method for the production thereof, use thereof as medicine and drug containing said derivatives and use thereof” (Sanofi, priority 2011, dated 2014).

Target: human 11β-HSD1 microsome fraction (Homo sapiens, UniProt P28845)
Experiment: Enzymatic 11beta-HSD1 test (SPA-based detection)
Type: biochemical
Settings: [1,2-3H]-cortisone substrate, 0.25 mM NADPH, 37° C., 1 hour; read-out: IC50 (nM), Biological activity in nanomolar
Procedure: Enzymatic 11beta-HSD1 Test:
To measure the activity of the compounds, an SPA-based detection method (Solly et al. 2005) was employed. First of all, 20 μl of the human 11β-HSD1 microsome fraction (0.2 μg of protein), prepared in 50 mM HEPES, 0.1% BSA (w/v), were applied to a plate with 384 wells. The test compounds (0.09 μl) were applied to the assay plate in 100% DMSO. The reaction was started by addition of 20 μl of [1,2-^3H]-cortisone (0.1 μCi/[…]) in assay buffer comprising 25 mM HEPES, 100 mM KCl, 5 mM NaCl, 2 mM MgCl2 and 0.25 mM NADPH. The plate was agitated at 37° C. for 1 hour. At the same time, a stop solution comprising 20 mg/ml SPA-PVT beads, 1.6 mg/ml monoclonal cortisol antibody and 0.01 mM SSR110887 (inhibitor from the Biovitrium patent) in 50 mM HEPES, 1 M NaCl and 1 M KCl was stirred at room temperature. To stop the reaction, 25 μl of the stop solution were added to each well. The plate was agitated gently at room temperature for 1 further hour and then centrifuged at 500 gav for 1 min, in order that the SPA beads could settle out. The plate was then read in a Wallac-1450-Microbeta unit with a standard SPA program (counting time 1 min/well). The comparative compound was glycyrrhetinic acid.
Protein and radioactive substrate were dispensed with a Biomek FX unit (Beckman Coulter) for handling liquids. The test compounds were added with a Cybi-Well equipped with a 90 nl pin tool (CyBio).
Lit.: Solly S, Mundt S S, Zokian H J, Juy-Fang Ding G, Hermanowski-Vosatka A, Strulovici B and Zheng W. High-throughput screening of 11β-Hydroxysteroid dehydrogenase type 1 in scintillation proximity format. Assay Drug Dev Technol 2005; 3:377-384.

human 11β-HSD1 microsome fraction, sequence (P28845 whole entry): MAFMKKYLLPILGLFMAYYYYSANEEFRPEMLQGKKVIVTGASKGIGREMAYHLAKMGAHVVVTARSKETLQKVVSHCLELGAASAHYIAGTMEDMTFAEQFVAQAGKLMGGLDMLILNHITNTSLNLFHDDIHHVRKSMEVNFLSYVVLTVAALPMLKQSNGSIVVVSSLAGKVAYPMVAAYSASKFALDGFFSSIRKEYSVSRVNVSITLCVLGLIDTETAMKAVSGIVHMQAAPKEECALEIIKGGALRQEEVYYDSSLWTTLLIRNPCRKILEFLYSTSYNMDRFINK

SMILES | IC50
O=S1(=O)CC2(CCCC2)OC(NC2CCCCC2)=N1 [Example 3, Cyclohexyl-(9,9-dioxo-6-oxa-9lambda6-thia-8-azaspiro[4.5]dec-7-en-7-yl)amine] | 308 nM
O=S1(=O)CC2(CCC2)OC(NC2CCCCC2)=N1 [Example 2, Cyclohexyl-(8,8-dioxo-5-oxa-8lambda6-thia-7-azaspiro[3.5]non-6-en-6-yl)amine] | 399 nM
CC1C(C)(C)OC(NC2CCCCC2)=NS1(=O)=O (centres unmarked) [Example 1, Cyclohexyl-(5,6,6-trimethyl-4,4-dioxo-5,6-dihydro-4H-4lambda6-[1,4,3]oxathiazin-2-yl) amine] | 139 nM
O=S1(=O)CC2(CCCCC2)OC(NC2CCCCC2)=N1 [Example 4, Cyclohexyl-(4,4-dioxo-1-oxa-4lambda6-thia-3-azaspiro[5.5]undec-2-en-2-yl)amine] | 300 nM
CC1(C)CS(=O)(=O)N=C(N[C@@H](CCO)c2ccccc2)O1 [Example 5, (S)-3-(6,6-Dlmethyl-4,4-dioxo-5,6-dihydro-4H-4lambda6-[1,4,3]oxathiazin-2-ylamino)-3 phenylpropan-1-ol] | 307 nM

Now from value to compound:

IC50 | SMILES
66 nM | O=S1(=O)CC2(CCCCC2)OC(N[C@@H](CCO)c2ccccc2)=N1 [Example 8, (S)-3-(4,4-Dioxo-1-oxa-4lambda6-thia-3-aza-spiro[5.5]undec-2-en-2-ylamino)-3-phenyl-propan-1-ol]
113 nM | O=S1(=O)CC2(CCCC2)OC(N[C@@H](CCO)c2ccccc2)=N1 [Example 7, (S)-3-(9,9-Dioxo-6-oxa-9lambda6-thia-8-aza-spiro[4.5]dec-7-en-7-ylamino)-3-phenyl-propan-1-ol]
128 nM | O=S1(=O)CC2(CCC2)OC(N[C@@H](CCO)c2ccccc2)=N1 [Example 6, (S)-3-(8,8-Dioxo-5-oxa-8lambda6-thia-7-azaspiro[3.5]non-6-en-6-ylamino)-3-phenyl-propan-1-ol]
